Data published in US20260015339A1, “CALIX[4]ARENES WITH HIGH ANTICANCER ACTIVITY” (UNIVERSITE GRENOBLE ALPES, priority 2023, published 2026).

What was measured:
[1] = test system: Candida albicans yeast cells; assay: Minimal inhibitory concentration, yeast growth in 96 well plate; assay type: cell-based; details: in presence of 100 μM CuSO4, read-out: minimal inhibitory concentrations values
Description: The efficiency of a compound of interest on a bacterial strain is evaluated by measuring its minimal inhibitory concentration (hereafter abbreviated “MIC”). MICs are measured by following the bacterial growth in a 96 wells plate exposed to a range of concentrations of the compound of interest.
96 Well plates were filled with 20 μL of 1 mM CuSO4 solution, then 160 μL of growth media was added. Finally, 20 μL of DMSO solutions containing a range of concentrations of the tested calix[4]arene of the formula (2) was added. […] For each condition three wells were used. The top and bottom rows were used as control, the top row only contained Lysogeny broth and the bottom one contained the growth media, DMSO and CuSO4. The plates were placed in the incubator for 16 to 24 hours. The absorbance of each well was measured at 600 nm with a multiplate reader (Fluostar from Optima).
Additionally, the same protocol was repeated with Candida albican yeast cells. Instead of Lysogeny broth, Yeast Extract-Peptone-Dextrose (Bacteriological peptone, 20 g/L; Glucose, 20 g/L; Yeast extract, 10 g/L) was used as growing medium. […]

[2] = test system: H322 lung carcinoma cells; assay: MTS cytotoxicity assay on H322; assay type: cell-based; details: NCI-H322; H322, 72 hours of treatment
Description: H322 lung carcinoma cells were seeded in 96-well plates together with the calix[4]arene of the formula (2). Cells were grown in RPMI-1640 supplemented with GlutaMAX™ (Gibco™) and fetal calf serum (FCS, 10%) and treated with a broad range of concentrations of the calix[4]arene of the formula (2). After 72 hours of treatment, the cytotoxicity was measured by means of the IC50 value, using the kit “CellTiter 96R AQuous One Solution Cell Proliferation Assay (MTS)” from Promega™. Following 30 minutes of incubation with the MTS reagent, the endpoint measurements were done in triplicate at 485 nm, using a fluorescence plate reader.
H322 lung carcinoma cells were seeded in 96-well plates together with the compound of the 2nd comparative example of the formula (XI). Cells were grown in RPMI-1640 supplemented with GlutaMAX™ (Gibco™) and fetal calf serum (FCS, 10%) and treated with a broad range of concentrations of the 2nd comparative example of the formula (XI). After 72 hours of treatment, the cytotoxicity was measured by means of the IC50 value, using the kit “CellTiter 96R AQuous One Solution Cell Proliferation Assay (MTS)” from Promega™. Following 30 minutes of incubation with the MTS reagent, the endpoint measurements were done in triplicate at 485 nm, using a fluorescence plate reader.
H322 lung carcinoma cells were seeded in 96-well plates together with the 1st comparative example of the formula (X). Cells were grown in RPMI-1640 supplemented with GlutaMAX™ (Gibco™) and fetal calf serum (FCS, 10%) and treated with a broad range of concentrations of the compound of the formula (X). After 72 hours of treatment, the cytotoxicity was measured by means of the IC50 value, using the kit “CellTiter 96R AQuous One Solution Cell Proliferation Assay (MTS)” from Promega™. Following 30 minutes of incubation with the MTS reagent, the endpoint measurements were done in triplicate at 485 nm, using a fluorescence plate reader.
H322 lung carcinoma cells were seeded in 96-well plates together with the tested calix[4]arenes. Cells were grown in RPMI-1640 supplemented with GlutaMAX™ (Gibco™) and fetal calf serum (FCS, 10%) and treated with a broad range of concentrations of the tested calix[4]arenes. After 72 hours of treatment, the cytotoxicity was measured by means of the IC50 value, using the kit “CellTiter 96R AQuous One Solution Cell Proliferation Assay (MTS)” from Promega™. Following 30 minutes of incubation with the MTS reagent, the endpoint measurements were done in triplicate at 485 nm, using a fluorescence plate reader.

Question: For CCCOc1c2cccc1Cc1cccc(c1OCc1nccn1C)Cc1cccc(c1OCCC)Cc1cccc(c1OCc1nccn1C)C2 [(2)], which MIC [1] is on record?
Answer: 0.8 µM

Question: What about the IC50 [2] of the same compound?
Answer: 1840 nM
